The record followed here is ChEMBL document CHEMBL5442741, “ASAP - In vitro kinase profile” (2024).

Experiment [1] has as its target Casein kinase II subunit alpha' (Homo sapiens) (UniProt P19784). In words: Enzymatic radiometric [Km ATP] KinaseProfiler LeadHunter assay, kinase: CK2-alpha2, catalogue number: 14-689KP The assay has been performed by Eurofins Discovery. To be noted: ATP concentration 10.0 uM, Test compound concentration 10.0 uM.
Experiment [2] addresses Protein kinase C theta type (Homo sapiens) (UniProt Q04759). In words: Enzymatic radiometric [Km ATP] KinaseProfiler LeadHunter assay, kinase: PKC-theta, catalogue number: 14-444KP The assay has been performed by Eurofins Discovery. To be noted: ATP concentration 15.0 uM, Test compound concentration 10.0 uM.
The target in experiment [3] is Ribosomal protein S6 kinase beta-1 (Homo sapiens) (UniProt P23443). In words: Enzymatic radiometric [Km ATP] KinaseProfiler LeadHunter assay, kinase: p70S6K, catalogue number: 14-486KP The assay has been performed by Eurofins Discovery. To be noted: ATP concentration 15.0 uM, Test compound concentration 10.0 uM.
The target of experiment [4] is PI3-kinase p110-alpha/p85-alpha (Homo sapiens) (UniProt P27986+P42336). Briefly: Enzymatic radiometric [Km ATP] KinaseProfiler LeadHunter assay, kinase: PI3 Kinase (p110-alpha/p85-alpha), catalogue number: 14-602KP The assay has been performed by Eurofins Discovery. It counts as protein-complex assay. To be noted: ATP concentration 200.0 uM, Test compound concentration 10.0 uM.

The target of experiment [5] is T1, Mitogen-activated protein kinase kinase kinase 7 (Homo sapiens) (UniProt O43318).
T1 sequence (whole entry): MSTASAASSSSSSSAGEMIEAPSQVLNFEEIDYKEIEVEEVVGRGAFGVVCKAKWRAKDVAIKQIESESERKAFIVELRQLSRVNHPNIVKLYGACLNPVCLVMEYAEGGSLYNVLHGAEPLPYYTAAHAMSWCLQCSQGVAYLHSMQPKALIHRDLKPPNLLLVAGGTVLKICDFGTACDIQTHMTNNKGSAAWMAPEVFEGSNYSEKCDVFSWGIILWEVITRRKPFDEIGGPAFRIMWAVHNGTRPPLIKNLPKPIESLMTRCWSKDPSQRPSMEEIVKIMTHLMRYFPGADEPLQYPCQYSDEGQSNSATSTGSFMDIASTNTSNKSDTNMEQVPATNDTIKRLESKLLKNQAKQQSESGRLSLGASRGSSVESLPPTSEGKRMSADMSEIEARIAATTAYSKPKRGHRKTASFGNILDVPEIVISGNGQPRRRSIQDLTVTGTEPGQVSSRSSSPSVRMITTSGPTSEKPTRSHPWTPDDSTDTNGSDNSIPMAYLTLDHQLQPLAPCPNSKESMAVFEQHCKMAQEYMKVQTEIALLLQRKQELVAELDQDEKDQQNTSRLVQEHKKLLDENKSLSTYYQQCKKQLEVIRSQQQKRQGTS
Briefly: Enzymatic radiometric [Km ATP] KinaseProfiler LeadHunter assay, kinase: TAK1, catalogue number: 14-600KP The assay has been performed by Eurofins Discovery. To be noted: ATP concentration 45.0 uM, Test compound concentration 10.0 uM.

In experiment [6] the target is Platelet-derived growth factor receptor beta (Homo sapiens) (UniProt P09619). In words: Enzymatic radiometric [Km ATP] KinaseProfiler LeadHunter assay, kinase: PDGFR-beta, catalogue number: 14-463KP The assay has been performed by Eurofins Discovery. To be noted: ATP concentration 200.0 uM, Test compound concentration 10.0 uM.
Experiment [7] has as its target T2, Serine/threonine-protein kinase Chk1 (Homo sapiens) (UniProt O14757).
T2 sequence (whole entry): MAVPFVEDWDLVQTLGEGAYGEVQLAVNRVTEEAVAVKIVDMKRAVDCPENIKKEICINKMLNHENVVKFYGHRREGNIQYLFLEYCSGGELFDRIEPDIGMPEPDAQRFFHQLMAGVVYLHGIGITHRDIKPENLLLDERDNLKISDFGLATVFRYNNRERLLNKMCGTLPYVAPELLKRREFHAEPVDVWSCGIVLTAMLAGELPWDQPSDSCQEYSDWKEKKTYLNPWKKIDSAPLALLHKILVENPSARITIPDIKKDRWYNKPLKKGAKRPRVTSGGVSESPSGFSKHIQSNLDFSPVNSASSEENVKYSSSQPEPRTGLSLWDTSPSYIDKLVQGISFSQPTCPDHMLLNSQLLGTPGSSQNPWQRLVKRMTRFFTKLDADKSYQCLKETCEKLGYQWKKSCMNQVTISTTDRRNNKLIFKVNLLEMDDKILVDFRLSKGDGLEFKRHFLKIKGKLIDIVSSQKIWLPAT
In words: Enzymatic radiometric [Km ATP] KinaseProfiler LeadHunter assay, kinase: CHK1, catalogue number: 14-346KP The assay has been performed by Eurofins Discovery. To be noted: ATP concentration 90.0 uM, Test compound concentration 10.0 uM.

In experiment [8] the target is T3, Inhibitor of nuclear factor kappa-B kinase subunit alpha (Homo sapiens) (UniProt O15111).
T3 sequence (whole entry): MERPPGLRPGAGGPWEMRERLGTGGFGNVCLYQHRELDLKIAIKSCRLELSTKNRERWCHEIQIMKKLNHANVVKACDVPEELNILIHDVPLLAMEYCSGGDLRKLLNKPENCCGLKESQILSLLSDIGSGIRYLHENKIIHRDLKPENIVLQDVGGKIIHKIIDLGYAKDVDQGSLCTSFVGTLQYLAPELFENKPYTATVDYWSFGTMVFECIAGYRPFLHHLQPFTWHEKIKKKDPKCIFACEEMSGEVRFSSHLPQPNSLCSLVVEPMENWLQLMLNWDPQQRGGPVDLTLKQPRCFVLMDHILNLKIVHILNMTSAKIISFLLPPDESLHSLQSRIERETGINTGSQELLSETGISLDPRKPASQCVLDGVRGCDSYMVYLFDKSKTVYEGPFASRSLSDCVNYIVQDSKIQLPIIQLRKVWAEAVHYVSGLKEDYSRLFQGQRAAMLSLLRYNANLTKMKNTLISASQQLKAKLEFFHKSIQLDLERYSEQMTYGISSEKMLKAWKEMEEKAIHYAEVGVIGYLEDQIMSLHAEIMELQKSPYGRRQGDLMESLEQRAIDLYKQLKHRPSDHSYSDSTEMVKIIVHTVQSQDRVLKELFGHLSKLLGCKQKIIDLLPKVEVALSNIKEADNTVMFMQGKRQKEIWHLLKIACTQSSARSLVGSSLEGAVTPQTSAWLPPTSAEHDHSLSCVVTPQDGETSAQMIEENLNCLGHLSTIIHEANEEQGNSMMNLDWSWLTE
Briefly: Enzymatic radiometric [Km ATP] KinaseProfiler LeadHunter assay, kinase: IKK-alpha, catalogue number: 14-461KP The assay has been performed by Eurofins Discovery. To be noted: ATP concentration 10.0 uM, Test compound concentration 10.0 uM.

The target in experiment [9] is Cyclin-dependent kinase 1/cyclin B (Homo sapiens) (UniProt P06493+P14635+Q8WWL7+O95067). Briefly: Enzymatic radiometric [Km ATP] KinaseProfiler LeadHunter assay, kinase: CDK1/cyclinB, catalogue number: 14-450KP The assay has been performed by Eurofins Discovery. To be noted: ATP concentration 45.0 uM, Test compound concentration 10.0 uM. It counts as protein-complex assay.

Experiment [10] has as its target Casein kinase I isoform gamma-1 (Homo sapiens) (UniProt Q9HCP0). In words: Enzymatic radiometric [Km ATP] KinaseProfiler LeadHunter assay, kinase: CK1-gamma1, catalogue number: 14-711KP The assay has been performed by Eurofins Discovery. To be noted: ATP concentration 15.0 uM, Test compound concentration 10.0 uM.

Chain of Casein kinase II subunit alpha' (Homo sapiens) (P19784 whole entry, looked up): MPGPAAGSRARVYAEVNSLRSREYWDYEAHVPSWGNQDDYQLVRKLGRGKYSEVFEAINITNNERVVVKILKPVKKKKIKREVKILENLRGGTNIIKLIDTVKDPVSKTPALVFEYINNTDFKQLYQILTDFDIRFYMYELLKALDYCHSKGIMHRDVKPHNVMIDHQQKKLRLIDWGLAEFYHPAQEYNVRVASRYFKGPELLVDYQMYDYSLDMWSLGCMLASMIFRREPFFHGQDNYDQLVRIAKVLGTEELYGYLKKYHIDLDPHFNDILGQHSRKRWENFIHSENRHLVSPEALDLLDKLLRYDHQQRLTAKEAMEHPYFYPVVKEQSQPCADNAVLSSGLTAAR
Chain of Ribosomal protein S6 kinase beta-1 (Homo sapiens) (P23443 whole entry, looked up): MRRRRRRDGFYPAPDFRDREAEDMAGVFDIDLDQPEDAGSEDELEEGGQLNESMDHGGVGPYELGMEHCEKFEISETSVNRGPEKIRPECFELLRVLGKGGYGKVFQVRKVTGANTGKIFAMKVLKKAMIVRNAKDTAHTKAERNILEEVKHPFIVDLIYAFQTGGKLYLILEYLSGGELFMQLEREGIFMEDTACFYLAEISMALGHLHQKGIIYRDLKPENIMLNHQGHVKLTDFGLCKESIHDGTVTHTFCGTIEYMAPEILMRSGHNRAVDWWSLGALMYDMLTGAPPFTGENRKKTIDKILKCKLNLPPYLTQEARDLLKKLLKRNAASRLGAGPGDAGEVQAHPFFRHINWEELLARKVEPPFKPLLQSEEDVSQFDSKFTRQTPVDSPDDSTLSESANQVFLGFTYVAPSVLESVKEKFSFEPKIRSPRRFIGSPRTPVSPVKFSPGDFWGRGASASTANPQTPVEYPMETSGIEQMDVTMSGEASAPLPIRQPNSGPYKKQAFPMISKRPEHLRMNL
Chain of Protein kinase C theta type (Homo sapiens) (Q04759 whole entry, looked up): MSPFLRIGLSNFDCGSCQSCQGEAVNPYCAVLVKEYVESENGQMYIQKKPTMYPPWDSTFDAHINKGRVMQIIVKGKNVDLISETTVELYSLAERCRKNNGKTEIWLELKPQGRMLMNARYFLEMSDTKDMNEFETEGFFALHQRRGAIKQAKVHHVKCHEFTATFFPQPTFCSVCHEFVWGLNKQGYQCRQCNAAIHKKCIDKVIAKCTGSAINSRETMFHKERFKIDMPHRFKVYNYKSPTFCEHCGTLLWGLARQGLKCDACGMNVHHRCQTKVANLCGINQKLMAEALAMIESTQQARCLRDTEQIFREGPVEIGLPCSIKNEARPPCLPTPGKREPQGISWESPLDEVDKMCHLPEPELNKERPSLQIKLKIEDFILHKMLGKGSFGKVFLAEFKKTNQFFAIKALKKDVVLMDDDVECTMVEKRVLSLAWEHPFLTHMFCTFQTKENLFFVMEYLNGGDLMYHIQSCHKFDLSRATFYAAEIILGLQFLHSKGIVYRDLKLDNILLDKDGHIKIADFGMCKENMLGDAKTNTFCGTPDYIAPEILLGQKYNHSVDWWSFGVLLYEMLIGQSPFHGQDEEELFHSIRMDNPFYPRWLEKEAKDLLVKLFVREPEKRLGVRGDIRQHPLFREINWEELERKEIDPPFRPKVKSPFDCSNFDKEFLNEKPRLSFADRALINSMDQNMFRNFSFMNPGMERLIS
Chain of Platelet-derived growth factor receptor beta (Homo sapiens) (P09619 whole entry): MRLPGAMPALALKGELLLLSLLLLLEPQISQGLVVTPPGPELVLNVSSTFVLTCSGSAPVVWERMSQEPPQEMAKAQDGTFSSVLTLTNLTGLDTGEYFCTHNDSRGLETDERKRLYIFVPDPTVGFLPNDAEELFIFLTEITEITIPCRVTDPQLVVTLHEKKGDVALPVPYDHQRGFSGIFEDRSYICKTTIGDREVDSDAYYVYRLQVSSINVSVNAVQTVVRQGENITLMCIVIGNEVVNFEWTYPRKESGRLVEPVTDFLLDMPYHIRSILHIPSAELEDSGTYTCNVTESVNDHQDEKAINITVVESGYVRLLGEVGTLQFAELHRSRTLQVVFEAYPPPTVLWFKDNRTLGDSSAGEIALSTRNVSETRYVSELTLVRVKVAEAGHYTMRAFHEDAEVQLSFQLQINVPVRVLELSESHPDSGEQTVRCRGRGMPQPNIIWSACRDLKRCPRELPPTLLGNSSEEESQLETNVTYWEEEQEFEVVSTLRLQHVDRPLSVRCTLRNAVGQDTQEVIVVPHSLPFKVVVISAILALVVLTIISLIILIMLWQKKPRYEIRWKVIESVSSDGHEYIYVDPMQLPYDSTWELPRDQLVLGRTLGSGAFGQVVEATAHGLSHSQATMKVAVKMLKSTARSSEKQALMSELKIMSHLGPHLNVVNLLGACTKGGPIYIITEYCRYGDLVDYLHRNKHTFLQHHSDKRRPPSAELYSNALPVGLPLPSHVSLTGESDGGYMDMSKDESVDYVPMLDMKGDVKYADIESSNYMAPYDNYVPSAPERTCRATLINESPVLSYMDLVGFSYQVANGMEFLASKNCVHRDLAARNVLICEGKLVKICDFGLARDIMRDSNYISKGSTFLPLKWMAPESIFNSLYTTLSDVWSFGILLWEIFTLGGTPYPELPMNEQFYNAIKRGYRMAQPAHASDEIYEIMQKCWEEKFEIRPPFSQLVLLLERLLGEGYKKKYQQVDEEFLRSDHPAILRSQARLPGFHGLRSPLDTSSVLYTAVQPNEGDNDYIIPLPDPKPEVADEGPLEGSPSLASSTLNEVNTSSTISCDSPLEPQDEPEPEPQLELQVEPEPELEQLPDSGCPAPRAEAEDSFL
Chain of Casein kinase I isoform gamma-1 (Homo sapiens) (Q9HCP0 whole entry, looked up, canonical isoform): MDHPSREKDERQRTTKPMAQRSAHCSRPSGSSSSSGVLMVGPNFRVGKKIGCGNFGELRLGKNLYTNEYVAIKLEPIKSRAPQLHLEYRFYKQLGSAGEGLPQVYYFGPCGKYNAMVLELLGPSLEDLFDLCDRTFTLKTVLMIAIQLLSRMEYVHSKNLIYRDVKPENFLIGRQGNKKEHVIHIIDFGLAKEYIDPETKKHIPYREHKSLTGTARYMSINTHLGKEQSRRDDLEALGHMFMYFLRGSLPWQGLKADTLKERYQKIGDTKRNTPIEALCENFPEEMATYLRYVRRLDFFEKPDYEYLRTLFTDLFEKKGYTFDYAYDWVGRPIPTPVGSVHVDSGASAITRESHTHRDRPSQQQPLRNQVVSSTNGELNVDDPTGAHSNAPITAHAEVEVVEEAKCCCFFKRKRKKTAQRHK

In the case of `CNCc1cc(-c2cc3c(N[C@@H](c4ccc5c(c4)S(=O)(=O)CCC5)C(C)C)ncnc3[nH]2)co1`, the Activity in [1] was found to be 90%; in experiment [2], 106%; in experiment [3] it was 110%; in experiment [4], 99%; in [5], 90%; in experiment [6] it was 89%. For the same molecule, the Activity in experiment [7] is 111%; in [8] it was 79%; in experiment [9], 97%; in experiment [10] it was 99%.
